Measurements: patent US5374733A, “Sweetening agent derived from L-aspartic or L-glutamic acid” (priority 1989, dated 1994)
Like-named read-outs stand apart in the source and are kept apart here. Peptide text beside a SMILES is read from it.

Tests used:
[1] = Stability: accelerated ageing in aqueous solution at pH 3 and 70° C., remaining product by HPLC (half-life); type: physicochemical; conditions: pH 3, 70° C.
Procedure: The stability of the compounds of the invention, in particular those containing the L-glutamyl residue, is very high and can in certain cases be about three hundred times greater than that of the compounds of the prior art.
The stability of the compounds of the prior art and those of the invention is measured using high performance liquid chromatography to determine the amount of product remaining after accelerated ageing in an acid medium (phosphate buffer at pH 3) and at high temperature (70° C.). Under these experimental conditions, measurement of the half-life (time corresponding to 50% degradation) makes it possible to evaluate the potential stability of the compounds tested in this way. A compound of low stability will have a very short half-life of only a few hours, whereas a very stable compound will have a half-life of several tens of days, as is the case, for example, of compounds (5) and (6) of the invention, which have a half-life of about 60 days (FIG. 1).

[2] = cited from earlier work
[3] = Sweetening potency: taste comparison by a team of eight experienced people with a sucrose reference solution; conditions: weight basis
Procedure: The sweetening potency of the compounds described in the Examples was evaluated by a team of eight experienced people. This is done by comparing the taste of the compounds, in aqueous solution at variable concentrations, with a 2%, 5 % or 10 % reference solution of sucrose. The sweetening potency of the test compound compared with sucrose then corresponds to the weight ratio between the compound and sucrose for equal sweetening intensity, i.e. when the sweet tastes of the solution of the test compound and the reference solution of sucrose are considered, by a majority of people, to have the same sweetening intensity.
Summary Table 3 below gives, by way of examples, a list of a few compounds obtained by experimental protocols similar to those described above, which those skilled in the art will easily find, together with their relative sweetening potency (SP), evaluated on a weight basis, compared with a 2% aqueous solution of sucrose. When the groups R1, R2 and R3 are different, the configuration of the asymmetric carbon to which they are bonded (carbon marked with an asterisk) is designated according to the conventional rules of stereochemistry using the R/S system: R, S or, when both configurations coexist in the same compound, RS.

[4] = phosphate buffer, pH 3, accelerated ageing, read-out: half-life (converted)
[5] = Table 2, EP-A-0.338.946, sucrose concentration not stated
[6] = prior art and aspartame, sucrose concentration not given
[7] = phosphate buffer, pH 3, accelerated ageing, prior art compounds, read-out: half-life (converted)

Structure (SMILES): N#Cc1ccc(NC(=O)[C@H](CC(=O)O)NCc2ccccc2)cc1 [compound (4)]
- half-life [1, 4]: ~48 h
- SP [2, 5]: 1000
- sweetening potency [2, 6]: 1000 times that of sucrose

Structure (SMILES): CCCCC(C)(C)C(=O)N[C@@H](CCC(=O)O)C(=O)Nc1ccc(C#N)nc1 [Example 2, N-(2,2-dimethylhexanoyl)-alpha-L-glutamyl-5-aminopyridine-2-carbonitrile]
- stability (in words) ([1]; accelerated ageing): excellent
- half-life [1, 4]: ~1680 h

Structure (SMILES): CCCC[C@H](C)C(=O)N[C@@H](CCC(=O)O)C(=O)Nc1ccc(C#N)nc1 [(5)]
- stability (in words) ([1]; accelerated ageing): high stability
- half-life [1, 4]: ~1440 h

Structure (SMILES): CC(N[C@@H](CC(=O)O)C(=O)Nc1ccc(C#N)cc1)C1CCCCC1 (stereo partly drawn) [c-C6 H11 CH(CH3)/1/4-CN--C6 H4]
- SP [2, 5]: 200

Structure (SMILES): CC=CC=CCN[C@@H](CCC(=O)O)C(=O)Nc1ccc(C#N)cc1 [CH3 CH=CHCH=CHCH2/2/4-CN--C6 H4]
- SP [2, 5]: 2000

Structure (SMILES): CCCCCN[C@@H](CCC(=O)O)C(=O)Nc1ccc(C#N)cc1 [CH3 (CH2)3 CH2/2/4-CN--C6 H4]
- SP [2, 5]: 1500

Structure (SMILES): CCCC=CCN[C@@H](CCC(=O)O)C(=O)Nc1ccc(C#N)cc1 [CH3 (CH2)2 CH=CHCH2/2/4-CN--C6 H4]
- SP [2, 5]: 3000

Structure (SMILES): N#Cc1ccc(NC(=O)[C@H](CC(=O)O)NCCc2ccccc2)cc1 [C6 H5 CH2 CH2/1/4-CN--C6 H4]
- SP [2, 5]: 300

Structure (SMILES): N#Cc1ccc(NC(=O)[C@H](CC(=O)O)NC(=O)C(F)(F)F)cc1 [compound (1)]
- half-life [1, 7]: ~15 h
- sweetening potency [2, 6]: 3000 times that of sucrose
- sweetening potency ([2]; prior art, by comparison with a 2% solution of sucrose): 3000 times that of sucrose

Structure (SMILES): CC(C)CCN[C@@H](CCC(=O)O)C(=O)Nc1ccc(C#N)cc1 [(CH3)2 CHCH2 CH2/2/4-CN--C6 H4]
- SP [2, 5]: 800

Structure (SMILES): N#Cc1ccc(NC(=O)[C@H](CCC(=O)O)NCCCC2CCCCC2)cc1 [c-C6 H11 CH2 CH2 CH2/2/4-CN--C6 H4]
- SP [2, 5]: 7000

Structure (SMILES): CCCC[C@H](C)C(=O)N[C@@H](CCC(=O)O)C(=O)Nc1ccc(C#N)cc1 [Example 4, N-[(S)-2-methylhexanoyl]-alpha-L-glutamyl-4-aminophenylcarbonitrile]
- stability (in words) ([1]; accelerated ageing): excellent
- half-life [1, 4]: > 1440 h
- SP (relative sweetening potency) ([3]; Table 3, compared with a 2% aqueous solution of sucrose): 9000
- sweetening potency ([3]; by comparison with a 2% solution of sucrose): ~9000 times that of sucrose

Structure (SMILES): N#Cc1ccc(NC(=O)[C@H](CC(=O)O)NC=O)cc1 [compound (2), reference compound]
- half-life [1, 7]: ~20 h
- sweetening potency [2, 6]: 40 times that of sucrose

Structure (SMILES): COC(=O)[C@H](Cc1ccccc1)NC(=O)[C@@H](N)CC(=O)O [aspartame, reference compound] (H-Asp-Phe-OMe)
- stability (in words) ([1]; accelerated ageing): relatively low stability
- half-life [1, 4]: 24 h
- sweetening potency [2, 6]: 180 times that of sucrose

Structure (SMILES): CCCCCN[C@@H](CC(=O)O)C(=O)Nc1ccc(C#N)cc1 [CH3 (CH2)3 CH2/1/4-CN--C6 H4]
- SP [2, 5]: 300

Structure (SMILES): CCCC[C@H](C)C(=O)N[C@@H](CCC(=O)O)C(=O)Nc1ccc(C#N)nc1 [Example 1, N-[(S)-2-methylhexanoyl]-alpha-L-glutamyl-5-aminopyridine-2-carbonitrile]
- half-life ([1]; accelerated ageing): about 60 days
- stability (in words) ([1]; accelerated ageing): excellent

Structure (SMILES): CCCCCCCN[C@@H](CCC(=O)O)C(=O)Nc1ccc(C#N)cc1 [CH3 (CH2)5 CH2/2/4-CN--C6 H4]
- SP [2, 5]: 7000

Structure (SMILES): O=C(O)C[C@H](NC(=O)C(F)(F)F)C(=O)Nc1cccnc1 [Y=H, X=CF3 CO]
- sweetening potency [2, 6]: 40 times that of sucrose

Structure (SMILES): CCCCCCCN[C@@H](CC(=O)O)C(=O)Nc1ccc(C#N)cc1 [CH3 (CH2)5 CH2/1/4-CN--C6 H4]
- SP [2, 5]: 2000

Structure (SMILES): CCCCCCCCN[C@@H](CCC(=O)O)C(=O)Nc1ccc(C#N)cc1 [CH3 (CH2)6 CH2/2/4-CN--C6 H4]
- SP [2, 5]: 2000

Structure (SMILES): N#Cc1ccc(NC(=O)[C@H](CCC(=O)O)NCc2ccccc2)cc1 [C6 H5 CH2/2/4-CN--C6 H4]
- SP [2, 5]: 20

Structure (SMILES): C[C@@H](Oc1ccccc1)C(=O)N[C@@H](CCC(=O)O)C(=O)Nc1ccc(C#N)nc1 [Example 3, N-[(R)-2-phenoxypropanoyl]-alpha-L-glutamyl-5-aminopyridine-2-carbonitrile]
- stability (in words) ([1]; accelerated ageing): very high
- half-life [1, 4]: ~1440 h

Structure (SMILES): N#Cc1ccc(NC(=O)[C@H](CCC(=O)O)NCCc2ccccc2)cc1 [C6 H5 CH2 CH2/2/4-CN--C6 H4]
- SP [2, 5]: 300

Structure (SMILES): CCCCCCCCN[C@@H](CC(=O)O)C(=O)Nc1ccc(C#N)cc1 [CH3 (CH2)6 CH2/1/4-CN--C6 H4]
- SP [2, 5]: 400

Structure (SMILES): CCCCCCN[C@@H](CCC(=O)O)C(=O)Nc1ccc(C#N)cc1 [CH3 (CH2)4 CH2/2/4-CN--C6 H4]
- SP [2, 5]: 5000

Structure (SMILES): CCC(CC)CN[C@@H](CC(=O)O)C(=O)Nc1ccc(C#N)cc1 [(CH3 CH2)2 CHCH2/1/4-CN--C6 H4]
- SP [2, 5]: 200

Structure (SMILES): N#Cc1ccc(NC(=O)[C@H](CC(=O)O)NC(=O)c2ccccc2)cc1 [compound (3)]
- half-life [1, 7]: ~8 h
- sweetening potency (SP) ([2]; JP-A-87-252754, text, by comparison with a 5% solution of sucrose): 720 times that of sucrose
- SP ([2]; Table 1, JP-A-87-252754, by comparison with a 5% solution of sucrose): 720 times that of sucrose
- sweetening potency [2, 6]: 720 times that of sucrose

Structure (SMILES): CCCCCCN[C@@H](CC(=O)O)C(=O)Nc1ccc(C#N)cc1 [CH3 (CH2)4 CH2/1/4-CN--C6 H4]
- SP [2, 5]: 600

Structure (SMILES): CCCC(C)CN[C@@H](CCC(=O)O)C(=O)Nc1ccc(C#N)cc1 (stereo partly drawn) [CH3 (CH2)2 CH(CH3)CH2/2/4-CN--C6 H4]
- SP [2, 5]: 5000

Structure (SMILES): O=C(O)C[C@H](NC(=O)C(Cl)(Cl)Cl)C(=O)Nc1cccnc1 [Y=H, X=CCl3 CO]
- sweetening potency [2, 6]: 1 times that of sucrose

Structure (SMILES): N#Cc1ccc(NC(=O)[C@H](CCC(=O)O)NCCCc2ccccc2)cc1 [C6 H5 CH2 CH2 CH2/2/4-CN--C6 H4]
- SP [2, 5]: 800
